Results reported in patent publication US6566554B1, “Aminobenzophenones as inhibitors of IL-1β and TNF-α” (Leo Pharmaceutical Products Ltd. a/s (Lovens Kemiske Fabrik …, priority 1999, dated 2003).

How the values were obtained:
Assay type in all cases: cell-based
[1] = test system: IL-1β secretion; assay: Inhibition of IL-1β secretion in LPS stimulated peripheral blood mononuclear cells; conditions: PBMC; LPS stimulated human peripheral blood mononuclear cells, 18 hours, ELISA; read-out: The median inhibition concentration (IC50, nM) of IL-1β
Protocol: (§1) To study the effect of the compound of the present invention in vitro the inhibition of the IL-1β and TNF-α secretion was measured using the following procedure:
(§2) Cytokine production was measured in the media from lipopolysaccharide (LPS) stimulated peripheral blood mononuclear cells. The mononuclear cells were isolated from human peripheral blood by Lymphoprep® (Nycomed, Norway) fractionation and suspended in RPMI 1640 (growth medium) with foetal calv serum (FCS, 2%), at a concentration of 5×10^5 cells/ml. The cells were incubated in 24-well tissue culture plates in 1 ml aliquots. Test compounds were dissolved in dimethylsulfoxide (DMSO, 10 mM) and were diluted with the medium. Compounds were added to the cells for 30 minutes, then LPS ([…] final concentration) was added. The plates were incubated for 18 hours, and the concentration of IL-1β and TNF-α in the medium was determined by enzyme-linked immunosorbent assays. The median inhibitory concentrations (IC50) of the compounds were calculated.

[2] = test system: TNF-α secretion; assay: Inhibition of TNF-α secretion in LPS stimulated peripheral blood mononuclear cells; conditions: PBMC; LPS stimulated human peripheral blood mononuclear cells, 18 hours, ELISA; read-out: The median inhibition concentration (IC50, nM) of TNF-α
Protocol: as §1, §2

[3] = test system: Human polymorphonuclear (PMN) granulocytes; assay: Inhibition of PMN superoxide secretion (ferricytochrome C reduction, TNF-α primed, fMLP stimulated); conditions: fMLP 10^−7 M, read-out: The median inhibition concentration (IC50, nM) of PMN-superoxide
Protocol: The compounds of the present invention also show similar activities in the ability to inhibit PMN (polymorphonuclear) superoxide secretion which is also indicative of potentially useful anti-inflammatory drugs. The compounds were tested using the following procedure. Human polymorphonuclear (PMN) granulocytes were isolated from human blood by dextran sedimentation, Lymphoprep® fractionation, and hypotonic lysis of contaminating erythrocytes. Superoxide anion generation was measured as the superoxide dismutase inhabitable reduction of ferricytochrome C (Madhu, S. B. et al, Inflammation, 16, 241, (1992)). The cells were suspended in Hank's balanced salt solution, and incubated for 10 minutes at 37° C. with test compounds. The cells were primed by the addition of TNF-α (3 ng/ml final concentration) for 10 minutes, and then ferricytochrome C, (final concentration 750 μg/ml), bovine serum albumin (BSA, final concentration 1 mg/ml) and formyl-methionyl-leucyl-phenylalanine (fMLP, final concentration 10^−7 M) were added for 3 minutes. The cells were chilled on ice, and were spun down. The optical densities in the cell-free supernatant was measured in a spectrophotometer. The median inhibitory concentration (IC50) of the compounds was calculated.

| IC50 [1] | IC50 [2] | IC50 [3] | SMILES |
| --- | --- | --- | --- |
| 200 nM | 25 nM | 63 nM | Cc1ccccc1C(=O)c1ccc(Nc2ccccc2NC(=O)CCC(=O)O)cc1Cl [Compound 101, N-[2-[3-Chloro-4-(2-methylbenzoyl)-phenylamino]phenyl]-succinamic Acid] |
| 6.3 nM | 6.3 nM | 5 nM | CCCCCCCC(=O)Nc1ccccc1Nc1ccc(C(=O)c2ccccc2C)c(Cl)c1 [Compound 102, 2′-[3-Chloro-4-(2-methylbenzoyl)-phenylamino]octananilide] |
